Source: ChEMBL document CHEMBL6074685, “Design, synthesis and biological evaluation of novel diaryl-substituted fused nitrogen heterocycles as tubulin polymerization inhibitors to overcome multidrug resistance in vitro and in vivo” (Eur J Med Chem, 2025)
pIC50: −log10 of the molar value. ≈ marks a conversion by molar mass, not a printed value. Calls of active or inactive are those of the source. No cut-off for these calls is given here.

What was measured:
[1] = (§1) Inhibition of pig brain tubulin polymerization measured upto 20 mins by absorbance based assay; design: species or system Sus scrofa
Sus scrofa = organism: Sus scrofa; experiment: as §1; conditions: dose 0.4-12 µM
A549/TR [2] = experiment: Antitumor activity against human A549/T cell xenografted in BALB/c mouse assessed as reduction in tumor growth at 15 mg/kg, ip administered every 2 days; type: functional, organism-based; conditions: time 2.0 day
[3] = Metabolic stability in human liver microsome assessed as half life measured upto 50 mins by LC-MS/MS analysis; type: ADME; conditions: liver microsomes
HCC827 = experiment: Antiproliferative activity against human HCC827 cells assessed as cell growth inhibition incubated for 48 hrs by MTT assay; type: functional, cell-based; conditions: HCC827, 48 h
A549 [4] = experiment: Antiproliferative activity against human A549 cells assessed as cell growth inhibition incubated for 48 hrs by MTT assay; conditions: A549, 48 h
A549/TR [5] = experiment: Induction of cell cycle arrest in human A549/T cell assessed as accumulation of cells at G2/M phase by RNAse A/PI-staining based flow cytometric analysis; type: functional; conditions: dose 25-100 nM
[6] = Toxicity in BALB/c mouse implanted with human A549/T cell assessed as monocyte count at 15 mg/kg, ip administered every 2 days and measured after 2 weeks (reference value: 30.6 %); type: organism-based; conditions: in vivo, 336 h
Tubulin (Homo sapiens) = Tubulin (Homo sapiens) (UniProt P68371+Q9H4B7+P0DPH7+P68366+Q13509+Q71U36+P04350+Q3ZCM7+P07437+P68363+Q9BQE3+Q6PEY2+Q13885+Q9BVA1+Q9BUF5); experiment: Disruption of microtubule network in human A549/T cell assessed as change in microtubule morphology at 100 to 200 nM incubated for 24 hrs by immunofluorescence staining based confocal microscopy analysis; conditions: dose 100-200 nM
[7] = Toxicity in BALB/c mouse implanted with human A549/T cell assessed as MCHC level at 15 mg/kg, ip administered every 2 days and measured after 2 weeks (reference value: 570 g/L); type: organism-based; conditions: in vivo, 336 h
[8] = Toxicity in BALB/c mouse implanted with human A549/T cell assessed as change in body weight at 15 mg/kg, ip administered every 2 days; type: organism-based; conditions: in vivo, 48 h, time 2 day
[9] = Cytotoxicity against human MCF-10A cells assessed as inhibition of cell growth at 100 nM incubated for 48 hrs by MTT assay relative to control; type: toxicity, cell-based
[10] = Toxicity in BALB/c mouse implanted with human A549/T cell assessed as spleen damage at 15 to 30 mg/kg, ip administered every 2 days by H and E staining based analysis; type: organism-based; conditions: in vivo, 48 h, dose 15-30 mg/kg, time 2 day
A549/TR [11] = experiment: Effect on p-gp expression in human A549/T cell by immunoblotting analysis; type: functional, cell-based
[12] = Toxicity in BALB/c mouse implanted with human A549/T cell assessed as lung damage at 15 to 30 mg/kg, ip administered every 2 days by H and E staining based analysis; type: organism-based; conditions: in vivo, 48 h, dose 15-30 mg/kg, time 2 day
[13] = Toxicity in BALB/c mouse implanted with human A549/T cell assessed as kidney damage at 15 to 30 mg/kg, ip administered every 2 days by H and E staining based analysis; type: organism-based; conditions: in vivo, 48 h, dose 15-30 mg/kg, time 2 day
[14] = Aqueous solubility of the compound […] at pH 7.4 by HPLC analysis; type: physicochemical
[15] = Toxicity in BALB/c mouse implanted with human A549/T cell assessed as change in body weight at 30 mg/kg, ip administered every 2 days; type: organism-based; conditions: in vivo, 48 h, time 2 day
A549 [16] = experiment: Induction of apoptosis in human A549 cells at 50 nM incubated for 48 hrs by V-FITC/PI staining based flow cytometry analysis relative to control; type: functional
[17] = Toxicity in BALB/c mouse implanted with human A549/T cell assessed as lymphocyte count at 30 mg/kg, ip administered every 2 days and measured after 2 weeks (reference value: 56%); type: organism-based; conditions: in vivo, 336 h
NCI-H1299 = experiment: Antiproliferative activity against human NCI-H1299 cells assessed as cell growth inhibition incubated for 48 hrs by MTT assay; type: functional, cell-based; conditions: NCI-H1299, 48 h
A549/TR [18] = experiment: Inhibition of colony formation in human A549/T cell incubated for 48 hrs by crystal violet staining based analysis; type: functional; conditions: dose 0.1-0.5 µM
[19] = Toxicity in BALB/c mouse implanted with human A549/T cell assessed as lymphocyte count at 30 mg/kg, ip administered every 2 days and measured after 2 weeks (reference value: […]); type: organism-based; conditions: in vivo, 336 h
[20] = Toxicity in BALB/c mouse implanted with human A549/T cell assessed as red blood cell distribution width-cell volume at 30 mg/kg, ip administered every 2 days and measured after 2 weeks (reference value: 25fL); type: organism-based; conditions: in vivo, 336 h
[21] = Toxicity in BALB/c mouse implanted with human A549/T cell assessed as WBC count at 30 mg/kg, ip administered every 2 days and measured after 2 weeks (reference value: 1.3 10^9/L); type: organism-based; conditions: in vivo, 336 h
A549/TR [22] = experiment: Effect on P-gp protein level in human A549/T cell at 62.5 to 500 nM measured at 12 hrs by immunoblotting analysis; type: functional, cell-based; conditions: dose 62.5-500 nM
[23] = Cytotoxicity against human MCF-10A cells assessed as inhibition of cell growth at 10 nM incubated for 48 hrs by MTT assay relative to control; type: toxicity, cell-based
[24] = Metabolic stability in mouse liver microsome assessed as intrinsic clearance measured upto 50 mins by LC-MS/MS analysis; type: ADME; conditions: liver microsomes, read-out: CLH
[25] = Toxicity in BALB/c mouse implanted with human A549/T cell assessed as WBC count at 15 mg/kg, ip administered every 2 days and measured after 2 weeks (reference value: 1.3 10^9/L); type: organism-based; conditions: in vivo, 336 h
[26] = Toxicity in BALB/c mouse implanted with human A549/T cell assessed as platelet distribution width at 15 mg/kg, ip administered every 2 days and measured after 2 weeks (reference value: 15.3 fL); type: organism-based; conditions: in vivo, 336 h
A549 [27] = experiment: Induction of apoptosis in human A549 cells at 25 nM incubated for 48 hrs by V-FITC/PI staining based flow cytometry analysis relative to control; type: functional
[28] = Resistance index, ratio of IC50 for human A549/T cells to IC50 for human A549 cells; type: functional
A549 [29] = experiment: Inhibition of colony formation in human A549 cells incubated for 48 hrs by crystal violet staining based analysis; type: functional, cell-based; conditions: dose 0.1-0.5 µM
A549/TR [30] = experiment: Downregulation of P-gp level in human A549/T cell measured after 48 hrs by immunoblotting analysis; type: functional, cell-based; conditions: dose 62.5-500 nM
A549/TR [31] = experiment: Induction of apoptosis in human A549/T cell at 125 nM incubated for 48 hrs by V-FITC/PI staining based flow cytometry analysis relative to control; type: functional
[32] = Toxicity in BALB/c mouse implanted with human A549/T cell assessed as MCH level at 30 mg/kg, ip administered every 2 days and measured after 2 weeks (reference value: 29.2 pg); type: organism-based; conditions: in vivo, 336 h
[33] = Toxicity in BALB/c mouse implanted with human A549/T cell assessed as platelet count at 15 mg/kg, ip administered every 2 days and measured after 2 weeks (reference value: 539 […]); type: organism-based; conditions: in vivo, 336 h

pIC50 [1]: 5.74
inhibition (Sus scrofa): Dose-dependent-effect
half-life [3]: 1.25 h
pIC50 (HCC827): 7.34
pIC50 (A549 [4]): 7.64
Activity (Tubulin (Homo sapiens)): Active
solubility [14]: 20.8 µg/mL (≈ 51.3 µM)
pIC50 (NCI-H1299): 7.20
CLint scaled [24]: 87 mL/min/kg
SMILES: COc1ccc(-c2cc(-c3ccc(OC)c(OC)c3OC)c3nc[nH]c3c2)cc1N
Activity (A549/TR [2]): Active
Activity (A549/TR [5]): Dose-dependent-effect
Activity [6]: 29.5%
Activity [7]: 589 g/L
Activity [8]: Non-toxic
inhibition at 48 h, 0.1 µM [9]: 47%
Activity [10]: Non-toxic
Activity (A549/TR [11]): Active
Activity [12]: Non-toxic
Activity [13]: Non-toxic
Activity [15]: Non-toxic
Activity (A549 [16]): 34.2%
Activity [17]: 55.2%
inhibition (A549/TR [18]): Dose-dependent-effect
Activity [19]: 1.32 10^9/L
Activity [20]: 25 fL
Activity [21]: 2.4 10^9/L
Activity (A549/TR [22]): inactive
inhibition at 48 h, 0.01 µM [23]: 20%
Activity [25]: 2.8 10^9/L
Activity [26]: 17.9 fL
Activity (A549 [27]): 15.47%
Ratio IC50 [28]: 2.47
inhibition (A549 [29]): Dose-dependent-effect
Activity (A549/TR [30]): Dose-dependent-effect
Activity (A549/TR [31]): 54.01%
Activity [32]: 31.6 pg
Activity [33]: 505 10^9/L
